Reference: patent US20230146455A1, “TREATMENT OF INFLAMMATORY DISEASES WITH PEPTIDES AND PHARMACEUTICAL COMPOSITIONS” (Yuyu Pharma, Inc., priority 2020, published 2023)
Several values for one entry are separate records, joined by “and”; a condition that tells them apart may be missing. Identical values can stand only once. Where a SMILES comes first, the peptide text is derived from it. [ ]: non-standard residue; d: D form. Hyp = O=C(O)[C@@H]1C[C@@H](O)CN1

Legend:
[1] = tested on: MMP-9; test: Example 9 Luminex, LPS hPBMCs: MMP-9; type: cell-based, human
Method: (§1) Treatment Human PBMCs were pretreated with YY-101, YDE-011 and YDE-043 or reference compound; Xiidra® at various concentration (ranging from 1 nM to 100 uM) for 2 h before stimulation. An equal volume of 0.5% DMSO was used as a vehicle control. Then, the cells were treated with LPS at 5 ug/ml. The supernatants from treated cells were harvested at 24 h and placed in a 96 well for Luminex cytokine & chemokine profiling using a Luminex 200 multiplex assay (Luminex; R&D system, USA).
(§2) The main study arm with triplicate wells per group in a 24-well plate: • 1. Blank • 2. PBMC: 0.5% DMSO • 3. PBMC+LPS (5 ug/ml) • 4. PBMC+YY-101 100 uM • 5. PBMC+YY-101 10 uM • 6. PBMC+YY-101 1 uM • 7. PBMC+YY-101 0.1 uM • 8. PBMC+YY-101 0.01 uM • 9. PBMC+LPS (5 ug/ml)+Xiidra®100 uM • 10. PBMC+LPS (5 ug/ml)+Xiidra® 10 uM • 11. PBMC+LPS (5 ug/ml)+Xiidra® 1 uM • 12. PBMC+LPS (5 ug/ml)+Xiidra®0.1 uM • 13. PBMC+LPS (5 ug/ml)+Xiidra®0.01 uM • 14. PBMC+LPS (5 ug/ml)+Xiidra®0.001 uM • 15. PBMC+LPS (5 ug/ml)+YY-101 100 uM • 16. PBMC+LPS (5 ug/ml)+YY-101 10 uM • 17. PBMC+LPS (5 ug/ml)+YY-101 1 uM • 18. PBMC+LPS (5 ug/ml)+YY-101 0.1 uM • 19. PBMC+LPS (5 ug/ml)+YY-101 0.01 uM • 20. PBMC+LPS (5 ug/ml)+YY-101 0.001 uM • 21. PBMC+LPS (5 ug/ml)+YDE-011 100 uM • 22. PBMC+LPS (5 ug/ml)+YDE-011 10 uM • 23. PBMC+LPS (5 ug/ml)+YDE-011 1 uM • 24. PBMC+LPS (5 ug/ml)+YDE-011 0.1 uM • 25. PBMC+LPS (5 ug/ml)+YDE-011 0.01 uM • 26. PBMC+LPS (5 ug/ml)+YDE-011 0.001 uM • 27. PBMC+LPS (5 ug/ml)+YDE-043 100 uM • 28. PBMC+LPS (5 ug/ml)+YDE-043 10 uM • 29. PBMC+LPS (5 ug/ml)+YDE-043 1 uM • 30. PBMC+LPS (5 ug/ml)+YDE-043 0.1 uM • 31. PBMC+LPS (5 ug/ml)+YDE-043 0.01 uM • 32. PBMC+LPS (5 ug/ml)+YDE-043 0.001 uM
(§3) Multiplex assay was used to measure 30 cytokines and chemokines. The 1:2, 1:10 and 1:200 diluted cell supernatant and serial dilution of the standard were dispensed into a 96 well plate at 50 ul/well. Then, the pre-mixed cocktail of antibody-coated magnetic beads was dispensed at 50 ul/well and incubated at room temperature for 2 h in a horizontal orbital microplate shaker at 800±500 rpm. The beads were washed using a magnetic device to prevent loss. The biotin-antibody was dispensed in 50 ul of each well and incubated at room temperature for 1 h in a shaker at 800±500 rpm. After washing, streptavidin-PE was added at 50 ul/well and incubated at room temperature for 30 min in a shaker under the same conditions. Finally, after washing, wash buffer (100 ul/well) was added to the plate and incubated in a shaker for 2 min. The Luminex™ 200 setting were set according to the manufacturer's protocol. The data was calculated with a standard five-parameter logistic nonlinear regression analysis of the data (xPonent software 4.2, USA). The levels of cytokine/chemokine are normalized to the live cell counts (1×10^5 cells/mL) and presented as concentrations per mL (pg/mL or ng/mL).

[2] = tested on: Fas Ligand; test: Example 9 Luminex, LPS hPBMCs: Fas Ligand; type: cell-based, human
Method: as §1, §2, §3

[3] = PBMC + 0.01 uM, no LPS, single replicates
[4] = PBMC + 0.1 uM, no LPS, single replicates
[5] = PBMC + 1 uM, no LPS, single replicates
[6] = PBMC + 10 uM, no LPS, single replicates
[7] = PBMC + 100 uM, no LPS, single replicates
[8] = PBMC + LPS(5 ug/ml) + 0.001 uM, Mean
[9] = PBMC + LPS(5 ug/ml) + 0.001 uM, single replicates
[10] = PBMC + LPS(5 ug/ml) + 0.01 uM, Mean
[11] = PBMC + LPS(5 ug/ml) + 0.01 uM, single replicates
[12] = PBMC + LPS(5 ug/ml) + 0.1 uM, Mean
[13] = PBMC + LPS(5 ug/ml) + 0.1 uM, single replicates
[14] = PBMC + LPS(5 ug/ml) + 1 uM, Mean
[15] = PBMC + LPS(5 ug/ml) + 1 uM, single replicates
[16] = PBMC + LPS(5 ug/ml) + 10 uM, Mean
[17] = PBMC + LPS(5 ug/ml) + 10 uM, single replicates
[18] = PBMC + LPS(5 ug/ml) + 100 uM, Mean
[19] = PBMC + LPS(5 ug/ml) + 100 uM, single replicates
[20] = PBMC + LPS(5 ug/ml) + test article 0.001 uM
[21] = PBMC + LPS(5 ug/ml) + test article 0.001 uM, single replicates
[22] = PBMC + LPS(5 ug/ml) + test article 0.01 uM
[23] = PBMC + LPS(5 ug/ml) + test article 0.01 uM, single replicates

Structure (SMILES): CC(C)C[C@H](NC(=O)CNC(=O)[C@H](CC(=O)O)NC(=O)[C@H](CCC(N)=O)NC(=O)CNC(=O)[C@@H]1C[C@@H](O)CN1)C(=O)N[C@@H](C)C(=O)NCC(=O)N1CCC[C@H]1C(=O)N[C@@H](CCCCN)C(=O)O [YY-101] (H-[Hyp]GQDGLAGPK-OH; N-terminus and C-terminus assumed)
- MMP-9 Concentration ([1]; PBMC + 0.01 uM, no LPS, Mean): 6947.7 pg/mL
- MMP-9 conc/live cell ([1]; PBMC + 0.01 uM, no LPS, Mean): 1395.6 pg/10^5
- MMP-9 Concentration [1, 3]: 6464.0 pg/mL and 7431.3 pg/mL
- MMP-9 conc/live cell [1, 3]: 1243.1 pg/10^5 and 1548.2 pg/10^5
- MMP-9 Concentration ([1]; PBMC + 0.1 uM, no LPS, Mean): 7041.0 pg/mL
- MMP-9 conc/live cell ([1]; PBMC + 0.1 uM, no LPS, Mean): 1365.4 pg/10^5
- MMP-9 Concentration [1, 4]: 5521.9 pg/mL and 8560.2 pg/mL
- MMP-9 conc/live cell [1, 4]: 1255.0 pg/10^5 and 1475.9 pg/10^5
- MMP-9 Concentration ([1]; PBMC + 1 uM, no LPS, Mean): 7016.7 pg/mL
- MMP-9 conc/live cell ([1]; PBMC + 1 uM, no LPS, Mean): 1275.8 pg/10^5
- MMP-9 Concentration [1, 5]: 6666.8 pg/mL and 7366.6 pg/mL
- MMP-9 conc/live cell [1, 5]: 1212.2 pg/10^5 and 1339.4 pg/10^5
- MMP-9 Concentration ([1]; PBMC + 10 uM, no LPS, Mean): 10460.4 pg/mL
- MMP-9 conc/live cell ([1]; PBMC + 10 uM, no LPS, Mean): 1662.8 pg/10^5
- MMP-9 Concentration [1, 6]: 13551.9 pg/mL and 7369.0 pg/mL
- MMP-9 conc/live cell [1, 6]: 2117.5 pg/10^5 and 1208.0 pg/10^5
- MMP-9 Concentration ([1]; PBMC + 100 uM, no LPS, Mean): 5317.6 pg/mL
- MMP-9 conc/live cell ([1]; PBMC + 100 uM, no LPS, Mean): 799.8 pg/10^5
- MMP-9 Concentration [1, 7]: 6000.1 pg/mL and 4635.0 pg/mL
- MMP-9 conc/live cell [1, 7]: 937.5 pg/10^5 and 662.1 pg/10^5
- MMP-9 Concentration [1, 8]: 182.3 pg/mL
- MMP-9 conc/live cell [1, 8]: 28.3 pg/10^5
- MMP-9 Concentration [1, 9]: 152.0 pg/mL and 155.2 pg/mL and 239.8 pg/mL
- MMP-9 conc/live cell [1, 9]: 26.7 pg/10^5 and 21.9 pg/10^5 and 36.3 pg/10^5
- MMP-9 Concentration [1, 10]: 150.9 pg/mL
- MMP-9 conc/live cell [1, 10]: 24.5 pg/10^5
- MMP-9 Concentration [1, 11]: 161.5 pg/mL and 155.2 pg/mL and 135.8 pg/mL
- MMP-9 conc/live cell [1, 11]: 25.2 pg/10^5 and 25.9 pg/10^5 and 22.3 pg/10^5
- MMP-9 Concentration [1, 12]: 114.6 pg/mL
- MMP-9 conc/live cell [1, 12]: 19.7 pg/10^5
- MMP-9 Concentration [1, 13]: 102.0 pg/mL and 119.2 pg/mL and 122.6 pg/mL
- MMP-9 conc/live cell [1, 13]: 16.5 pg/10^5 and 22.9 pg/10^5 and 19.8 pg/10^5
- MMP-9 Concentration [1, 14]: 167.7 pg/mL
- MMP-9 conc/live cell [1, 14]: 25.8 pg/10^5
- MMP-9 Concentration [1, 15]: 155.2 pg/mL and 161.5 pg/mL and 186.3 pg/mL
- MMP-9 conc/live cell [1, 15]: 24.6 pg/10^5 and 22.8 pg/10^5 and 30.1 pg/10^5
- MMP-9 Concentration [1, 16]: 157.2 pg/mL
- MMP-9 conc/live cell [1, 16]: 24.0 pg/10^5
- MMP-9 Concentration [1, 17]: 161.5 pg/mL and 167.8 pg/mL and 142.4 pg/mL
- MMP-9 conc/live cell [1, 17]: 26.9 pg/10^5 and 26.2 pg/10^5 and 18.7 pg/10^5
- MMP-9 Concentration [1, 18]: 96.1 pg/mL
- MMP-9 conc/live cell [1, 18]: 16.5 pg/10^5
- MMP-9 Concentration [1, 19]: 98.5 pg/mL and 102.0 pg/mL and 87.7 pg/mL
- MMP-9 conc/live cell [1, 19]: 15.6 pg/10^5 and 16.5 pg/10^5 and 17.5 pg/10^5
- Fas Ligand Concentration, Mean [2, 20]: 30.9 pg/mL
- Fas Ligand conc/live cell, Mean [2, 20]: 4.9 pg/10^5
- MFI, bead Fas Ligand, Mean [2, 20]: 43.3
- Fas Ligand Concentration [2, 21]: 35.8 pg/mL and 32.7 pg/mL and 24.1 pg/mL
- Fas Ligand conc/live cell [2, 21]: 6.3 pg/10^5 and 4.6 pg/10^5 and 3.7 pg/10^5
- MFI, bead Fas Ligand [2, 21]: 50.5 and 46.0 and 33.5
- Fas Ligand Concentration, Mean [2, 22]: 33.8 pg/mL
- Fas Ligand conc/live cell, Mean [2, 22]: 5.5 pg/10^5
- MFI, bead Fas Ligand, Mean [2, 22]: 47.5
- Fas Ligand Concentration [2, 23]: 30.7 pg/mL and 39.3 pg/mL and 31.3 pg/mL
- Fas Ligand conc/live cell [2, 23]: 4.8 pg/10^5 and 6.6 pg/10^5 and 5.1 pg/10^5
